Source: ChEMBL document CHEMBL5149975, “Freshwater Fungi as a Source of Chemical Diversity: A Review” (J Nat Prod, 2021)
≈ marks a conversion by molar mass, not a printed value.

Tests used:
[1] = test system: Bacillus cereus; experiment: Antibacterial activity against Bacillus cereus by microtiter plate method; format: functional
[2] = test system: Vibrio anguillarum; experiment: Antibacterial activity against Vibrio anguillarum by microtiter plate method; format: functional
[3] = test system: Vibrio parahaemolyticus; experiment: Antibacterial activity against Vibrio parahaemolyticus by microtiter plate method; format: functional
[4] = test system: Staphylococcus aureus; experiment: Antibacterial activity against Staphylococcus aureus ATCC 6538 inhibition of zones at 50 ug per disk by standard disk assay; format: functional; conditions: read-out: IZ
[5] = test system: Pseudomonas aeruginosa; experiment: Antimicrobial activity against Pseudomonas aeruginosa; format: functional
[6] = Antioxidant activity of the compound by DPPH assay; format: functional
[7] = biological target: T1, Tyrosine-protein phosphatase non-receptor type 1 (Homo sapiens) (UniProt P18031); experiment: Inhibition of PTP1B (unknown origin) at 15.7 uM relative control
T1 sequence (whole entry): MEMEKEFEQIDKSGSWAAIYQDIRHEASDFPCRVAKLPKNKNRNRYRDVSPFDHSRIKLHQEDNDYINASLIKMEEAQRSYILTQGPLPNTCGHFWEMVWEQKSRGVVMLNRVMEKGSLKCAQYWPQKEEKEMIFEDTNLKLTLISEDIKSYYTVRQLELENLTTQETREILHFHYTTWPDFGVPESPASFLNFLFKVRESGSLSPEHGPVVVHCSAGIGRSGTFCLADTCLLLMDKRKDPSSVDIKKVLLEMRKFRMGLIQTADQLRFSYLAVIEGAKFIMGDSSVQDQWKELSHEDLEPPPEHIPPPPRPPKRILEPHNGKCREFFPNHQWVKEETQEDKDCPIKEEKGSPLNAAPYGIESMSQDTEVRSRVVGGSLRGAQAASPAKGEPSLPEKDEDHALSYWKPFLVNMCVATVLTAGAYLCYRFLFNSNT

[8] = test system: Staphylococcus aureus; experiment: Antibacterial activity against Staphylococcus aureus ATCC25923 measured after 18 hrs by agar dilution method; format: functional
[9] = test system: Candida albicans; experiment: Antifungal activity against clinical isolate Candida albicans measured after 24 hrs by agar dilution method; format: functional
[10] = biological target: T2, Tyrosine-protein phosphatase non-receptor type 1 (Homo sapiens, UniProt P18031); experiment: Inhibition of PTP1B (unknown origin)
T2 sequence (P18031 whole entry): T1 sequence (whole entry)

[11] = biological target: T1, Tyrosine-protein phosphatase non-receptor type 1 (Homo sapiens); experiment: Inhibition of human recombinant PTP1B (1 to 322 residues) expressed in Escherichia coli using pNPP as substrate at 36 uM incubated for 10 mins followed by substrate addition and measured after 30 mins by microplate reader based analysis relative to control; conditions: time 40.0 min
[12] = biological target: T2, Tyrosine-protein phosphatase non-receptor type 1; experiment: Inhibition of human recombinant PTP1B (1 to 322 residues) expressed in Escherichia coli using pNPP as substrate incubated for 10 mins followed by substrate addition and measured after 30 mins by microplate reader based analysis
[13] = test system: Staphylococcus aureus; experiment: Antimicrobial activity against Staphylococcus aureus; format: functional
[14] = test system: Mycolicibacterium smegmatis; experiment: Antimicrobial activity against Mycobacterium smegmatis; format: functional

Molecule `O=c1[nH]c2ccccc2c(-c2ccccc2)c1O` has an MIC [1] of 25 µM (≈ 5.93 µg/mL), an MIC [2] of 25 µM (≈ 5.93 µg/mL) and an MIC [3] of 25 µM (≈ 5.93 µg/mL).

For `COc1ccc(OC)c2c1OCc1cc(CO)cc(O)c1C2=O`, the zone of inhibition at 50 µg/disc [4] was 11 mm.

`CC1(C)C=Cc2c(ccc3c2N[C@]2(C[C@@]45NC(=O)[C@]6(CCCN6C4=O)CC5C2(C)C)C3=O)O1` (stereo partly drawn) gave an MIC [5] of 0.8 µM (≈ 0.358 µg/mL).

With `O=c1c(O)c(-c2ccc(O)c(O)c2)oc2cc(O)cc(O)c12` [QUERCETIN] the IC50 [6] was 5.7 µM.

In the case of `COC(=O)[C@@]12Oc3ccc(-c4ccc5c(c4O)C(=O)C4=C(O)C[C@H](C)[C@@H](O)[C@]4(C(=O)OC)O5)c(O)c3C(=O)C1=C(O)C[C@H](C)[C@H]2O`, the inhibition [7] is reported as 40%.

In the case of `C=C1CCC[C@@]2(C)CC[C@H](C(C)(C)O)CC12` (stereo partly drawn), the MIC [8] is reported as > 128 µg/mL and the MIC [9] is reported as > 128 µg/mL.

`COC(=O)[C@@]12Oc3c(-c4ccc5c(c4O)C(=O)C4=C(O)C[C@H](C)[C@H](O)[C@]4(C(=O)OC)O5)ccc(O)c3C(=O)C1=C(O)C[C@H](C)[C@H]2O` gave an IC50 [10] of 5.9 µM.

For `C=C1C[C@@H](O)C[C@@]2(C)CC[C@H](C(C)(C)O)CC12` (stereo partly drawn), the MIC [8] was > 128 µg/mL and the MIC [9] was > 128 µg/mL.

Work on `COc1ccc(OC)c2c1OCc1cc(C)cc(O)c1C2=O` yielded a zone of inhibition at 50 µg/disc [4] of 11 mm.

Molecule `COc1cc(O)cc(C)c1Oc1cc(C)cc(O)c1O` has an inhibition [11] of 32%.

For `COc1cc(C)c(Oc2cc(C)cc(O)c2O)c(O)c1`, the IC50 [12] was 13 µM.

For `C=C1CCC[C@@]2(C)CC(O)[C@H](C(C)(C)O)C[C@]12O` (stereo partly drawn), the MIC [8] was > 128 µg/mL and the MIC [9] was > 128 µg/mL.

With `O=C1C=C2OC3(O)CC(=O)c4c(O)cccc4C3=C2c2cccc(O)c21` (stereo not drawn) the MIC [13] was 86 µM and the MIC [14] was 172 µM (≈ 59.9 µg/mL).

Work on `COc1cc(C)c(Oc2cc(C)cc(O)c2)c(O)c1` [CYPERIN] yielded an IC50 [12] of 17 µM.

For `C=C1CCC[C@]2(C)C1C[C@@H](C(C)(C)O)C[C@@H]2O` (stereo partly drawn), the MIC [8] was > 128 µg/mL and the MIC [9] was > 128 µg/mL.

For `Cc1cc(O)c2c(c1)COc1c(O)ccc(O)c1C2=O`, the zone of inhibition at 50 µg/disc [4] was 11 mm.

In the case of `COc1cc(O)c(OC)c2c1C(=O)c1c(O)cc(C)cc1CO2`, the zone of inhibition at 50 µg/disc [4] is reported as 11 mm.

For `COC(=O)[C@H]1C[C@@H](C)[C@H]2[C@@H](C=C[C@H](C)[C@@H]2/C=C/C=C/C(=O)O)[C@@H]1C`, the IC50 [6] was 2.8 µM.

With `C=C1CCC[C@@]2(C)CC[C@H](C(C)(C)O)C[C@]12O` the MIC [8] was > 128 µg/mL and the MIC [9] was > 128 µg/mL.

Molecule `O=C1c2c(O)cc(CO)cc2COc2c(O)c(O)cc(O)c21` has a zone of inhibition at 50 µg/disc [4] of 11 mm.

Molecule `COC(=O)[C@@]12Oc3ccc(-c4ccc5c(c4O)C(=O)C4=C(O)C[C@H](C)[C@H](O)[C@]4(C(=O)OC)O5)c(O)c3C(=O)C1=C(O)C[C@H](C)[C@H]2O` has an IC50 [10] of 9.6 µM.

In the case of `COC(=O)[C@@]12Oc3ccc(Oc4cccc5c4C(=O)C4=C(O)C[C@H](C)[C@H](O)[C@]4(C(=O)OC)O5)c(O)c3C(=O)C1=C(O)C[C@H](C)[C@H]2O`, the IC50 [10] is reported as 6 µM.

With `COc1cc(O)c2c(c1C)[C@H](C)C(=O)OC2=O` the MIC [13] was 33 µg/mL.

With `C=C1CCC[C@@]2(C)C[C@H](O)[C@H](C(C)(C)O)C[C@@]12O` the MIC [8] was > 128 µg/mL and the MIC [9] was > 128 µg/mL.
